The term IC50 denotes the concentration that inhibits the measured activity by half.

The text below walks through data of ChEMBL document CHEMBL5052852, “Substituted hydantoinamides as adamts7 antagonists” (2021).

Assay [1] in a line: Inhibition of recombinant rat/human ADAMTS7 hybrid using HiLyteFluor-488 DELSSMVLELRGLRT-K(QXL520)-E-NH2 as substrate incubated for 120 mins and measured by FRET assay.
Assay [2] in a line: Inhibition of recombinant rat/human ADAMTS12 hybrid using HiLyteFluor-488 DELSSMVLELRGLRT-K(QXL520)-E-NH2 as substrate incubated for 120 mins and measured by FRET assay.

Consider `O=C1NC(=O)[C@](CNC(=O)c2cnn(-c3ccccc3F)n2)(C2CC2)N1`, for which the IC50 in assay [1] was determined as 0.18 µM; in assay [2], 7.6 µM.

With `O=C1NC(=O)C(CNC(=O)c2cnn(-c3ccc(F)cc3)n2)(C2(Cl)CC2)N1` (racemic), the half-inhibitory concentration (IC50) is 0.074 µM in assay [1] and 3.7 µM in assay [2].

Regarding `Cc1nc(C2(CNC(=O)c3cnn(-c4ccc(F)cc4)n3)NC(=O)NC2=O)c(C)s1` (racemic), the figures for the IC50 in assay [1] and in assay [2] were 0.1 µM and 2.8 µM, respectively.

For `CC(C)(C)C1(CNC(=O)c2cnn(-c3ccccc3)n2)NC(=O)NC1=O` (stereo in doubt), the concentration for half-maximal inhibition (IC50) worked out at 0.047 µM in assay [1] and 13.1 µM in assay [2].

In the case of `CC(C)C1(CNC(=O)c2cnn(-c3cccc(F)c3)n2)NC(=O)NC1=O` (stereo in doubt), the half-inhibitory concentration (IC50) in assay [1] was 0.013 µM; in assay [2], 2.3 µM.

On to `CC(C)C1(CNC(=O)c2cnn(-c3cc(F)c(F)c(F)c3)n2)NC(=O)NC1=O` (racemic), for which the IC50 in assay [1] was 0.052 µM; in assay [2] it was 6 µM.

Take `O=C1NC(=O)[C@](CNC(=O)c2cnn(-c3ccc(Cl)c(F)c3)n2)(C2CC2)N1`: the 50% inhibitory concentration (IC50) came to 0.012 µM in assay [1] and 0.5 µM in assay [2].

Turning to `O=C1NC(=O)[C@](CNC(=O)c2cnn(-c3cccc(F)c3)n2)(C2CC2)N1`, the 50% inhibitory concentration (IC50) in assay [1] stood at 0.013 µM; in assay [2], 0.58 µM.

For the molecule `CC(C)C1(CNC(=O)c2cnn(-c3ccc(F)c(F)c3)n2)NC(=O)NC1=O` (stereo in doubt), the half-maximal inhibitory concentration (IC50) in assay [1] was determined as 0.007 µM; in assay [2], 0.91 µM.

`CCC(C)C1(CNC(=O)c2cnn(-c3ccc(F)cc3)n2)NC(=O)NC1=O` (stereo in doubt; form 1): the IC50 stood at 0.062 µM in assay [1] and 2.9 µM in assay [2].

Turning to `O=C1NC(=O)C(CNC(=O)c2cnn(-c3cccc(Cl)c3)n2)(C2CCC2)N1` (configuration not stated), the IC50 in assay [1] turned out to be 0.048 µM; in assay [2] it was 2.2 µM.

On to `O=C1NC(=O)C(CNC(=O)c2cnn(-c3ccccc3)n2)(C2CCCC2)N1` (stereo in doubt), for which the values for the IC50 in assay [1] and in assay [2] were 0.12 µM and 11 µM, respectively.

Regarding `O=C1NC(=O)C(CNC(=O)c2cnn(-c3cccc(F)c3)n2)(c2nccs2)N1` (racemic), the 50% inhibitory concentration (IC50) in assay [1] was 0.012 µM; in assay [2] it was 0.6 µM.

As for `O=C1NC(=O)C(CNC(=O)c2cnn(-c3ccc(F)c(Cl)c3)n2)(c2nccs2)N1` (stereo in doubt), the IC50 in assay [1] was 0.014 µM; in assay [2], 0.78 µM.

Consider `O=C1NC(=O)[C@](CNC(=O)c2cnn(-c3cnccn3)n2)(C2CC2)N1`, for which the concentration for half-maximal inhibition (IC50) in assay [1] was found to be 0.355 µM; in assay [2], 24 µM.

For the molecule `O=C1NC(=O)[C@](CNC(=O)c2cnn(-c3ccccc3)c2)(C2CC2)N1`, the figures for the 50% inhibitory concentration (IC50) in assay [1] and in assay [2] were 0.129 µM and 1.8 µM, respectively.

For the molecule `O=C1NC(=O)C(CNC(=O)c2cnn(-c3ccc(F)c(Cl)c3)n2)(c2nccs2)N1` (racemic), the figures for the IC50 in assay [1] and in assay [2] were 0.035 µM and 1.2 µM, respectively.

As to `CC(C)(C)C1(CNC(=O)c2cnn(-c3ccccc3)n2)NC(=O)NC1=O` (racemic), the IC50 in assay [1] is 0.07 µM; in assay [2], 15 µM.

As for `Cc1ncsc1C1(CNC(=O)c2cnn(-c3ccc(F)cc3)n2)NC(=O)NC1=O` (racemic), the values for the IC50 in assay [1] and in assay [2] were 0.037 µM and 2.5 µM, respectively.

Turning to `COc1ccc(-n2ncc(C(=O)NC[C@@]3(C4CC4)NC(=O)NC3=O)n2)cc1`, the concentration for half-maximal inhibition (IC50) in assay [1] was determined as 0.1 µM; in assay [2], 6 µM.

`O=C1NC(=O)[C@](CNC(=O)c2cnn(-c3ccc(F)cc3)n2)(C2CC2)N1`: the IC50 in assay [1] was 0.026 µM; in assay [2], 1.42 µM.

Regarding `CCCCC1(CNC(=O)c2cnn(-c3ccc(F)cc3)n2)NC(=O)NC1=O` (racemic), the IC50 in assay [1] turned out to be 0.12 µM; in assay [2], 8.3 µM.

`O=C1NC(=O)C(CNC(=O)c2cnn(-c3ccccc3)n2)(c2ccccn2)N1` (racemic): the IC50 was determined as 0.026 µM in assay [1] and 4.8 µM in assay [2].

For the molecule `CC(CO)C1(CNC(=O)c2cnn(-c3ccccc3)n2)NC(=O)NC1=O` (configuration not stated), the IC50 in assay [1] came to 0.19 µM; in assay [2] it was 17 µM.

In the case of `O=C1NC(=O)C(CNC(=O)c2cnn(-c3ccc(Cl)c(F)c3)n2)(c2nccs2)N1` (racemic), the 50% inhibitory concentration (IC50) was determined as 0.019 µM in assay [1] and 1.1 µM in assay [2].

With `O=C1NC(=O)C(CNC(=O)c2cnn(-c3ccc(F)cc3F)n2)(c2nccs2)N1` (stereo in doubt), the IC50 in assay [1] came to 0.078 µM; in assay [2] it was 5.5 µM.

As to `O=C1NC(=O)[C@](CNC(=O)c2cnn(-c3nc4ccccc4s3)n2)(C2CC2)N1`, the figures for the IC50 in assay [1] and in assay [2] were 0.19 µM and 11 µM, respectively.

Turning to `CC(C)C1(CNC(=O)c2cnn(-c3cc(F)c(F)c(F)c3)n2)NC(=O)NC1=O` (stereo in doubt), the IC50 came out at 0.02 µM in assay [1] and 3.3 µM in assay [2].

As to `O=C1NC(=O)[C@](CNC(=O)c2cnn(-c3ccc(Cl)c(Cl)c3)n2)(C2CC2)N1`, the figures for the 50% inhibitory concentration (IC50) in assay [1] and in assay [2] were 0.035 µM and 0.91 µM, respectively.

In the case of `O=C1NC(=O)C(CNC(=O)c2cnn(-c3ccc(F)c(F)c3)n2)(c2nccs2)N1` (configuration not stated), the IC50 in assay [1] was 0.007 µM; in assay [2], 0.31 µM.

In the case of `CC(C)C1(CNC(=O)c2cnn(-c3ccc(F)cc3F)n2)NC(=O)NC1=O` (racemic), the 50% inhibitory concentration (IC50) worked out at 0.098 µM in assay [1] and 20 µM in assay [2].

Regarding `CC(C)(C)C1(CNC(=O)c2cnn(-c3ccccc3)c2)NC(=O)NC1=O` (racemic), the values for the half-inhibitory concentration (IC50) in assay [1] and in assay [2] were 0.55 µM and 5.6 µM, respectively.

For `Cn1ccnc1C1(CNC(=O)c2cnn(-c3ccccc3)n2)NC(=O)NC1=O` (racemic), the concentration for half-maximal inhibition (IC50) was 0.004 µM in assay [1] and 0.36 µM in assay [2].

As to `O=C1NC(=O)[C@](CNC(=O)c2cnn(-c3ccccn3)n2)(C2CC2)N1`, the concentration for half-maximal inhibition (IC50) stood at 0.098 µM in assay [1] and 7.65 µM in assay [2].

As to `O=C1NC(=O)C(CNC(=O)c2cnn(-c3ccccc3)n2)(C2CCCOC2)N1` (stereo in doubt; form 2), the results for the IC50 in assay [1] and in assay [2] were 0.25 µM and 6.5 µM, respectively.

In the case of `Cc1scnc1C1(CNC(=O)c2cnn(-c3ccc(F)cc3)n2)NC(=O)NC1=O` (stereo in doubt), the IC50 in assay [1] came to 0.002 µM; in assay [2] it was 0.2 µM.

As for `Cn1ccnc1C1(CNC(=O)c2cnn(-c3cc(F)c(F)c(F)c3)n2)NC(=O)NC1=O` (stereo in doubt), the 50% inhibitory concentration (IC50) in assay [1] was 0.003 µM; in assay [2] it was 0.108 µM.

With `CC(C)(C)C1(CNC(=O)c2cnc(-c3ccccc3)o2)NC(=O)NC1=O` (racemic), the results for the IC50 in assay [1] and in assay [2] were 0.48 µM and 50 µM, respectively.

On to `O=C1NC(=O)C(CNC(=O)c2cnn(-c3ccc(F)cc3)n2)(C2CCOCC2)N1` (stereo in doubt), for which the IC50 in assay [1] came out at 0.037 µM; in assay [2], 1.5 µM.

Consider `CC(C)(C)C1(CNC(=O)c2cnn(-c3cccc(F)c3)n2)NC(=O)NC1=O` (racemic), for which the values for the IC50 in assay [1] and in assay [2] were 0.26 µM and 6.6 µM, respectively.

Take `O=C1NC(=O)C(CNC(=O)c2cnn(-c3ccc(Cl)c(F)c3)n2)(C2CCC2)N1` (configuration not stated): the values for the concentration for half-maximal inhibition (IC50) in assay [1] and in assay [2] were 0.006 µM and 0.975 µM, respectively.

With `O=C1NC(=O)C(CNC(=O)c2cnn(-c3ccccc3)n2)(c2ccccn2)N1` (stereo in doubt), the IC50 in assay [1] is 0.01 µM; in assay [2], 2.8 µM.

With `O=C1NC(=O)C(CNC(=O)c2cnn(-c3ccc(F)cc3)n2)(C2CCCC2)N1` (racemic), the half-maximal inhibitory concentration (IC50) in assay [1] worked out at 0.38 µM; in assay [2], 50 µM.

Take `Cn1ccnc1C1(CNC(=O)c2cnn(-c3cc(F)c(F)c(F)c3)n2)NC(=O)NC1=O` (racemic): the 50% inhibitory concentration (IC50) in assay [1] turned out to be 0.005 µM; in assay [2] it was 0.2 µM.

Take `O=C1NC(=O)[C@](CNC(=O)c2cnn(-c3cccc(F)c3F)n2)(C2CC2)N1`: the values for the IC50 in assay [1] and in assay [2] were 0.074 µM and 3.1 µM, respectively.

Take `N#Cc1ccc(-n2ncc(C(=O)NC[C@@]3(C4CC4)NC(=O)NC3=O)n2)cc1`: the IC50 in assay [1] was 0.04 µM; in assay [2], 17 µM.

Regarding `O=C1NC(=O)[C@](CNC(=O)c2cnn(-c3ccc(C(F)(F)F)c(F)c3)n2)(C2CC2)N1`, the IC50 in assay [1] turned out to be 0.12 µM; in assay [2] it was 4.6 µM.

Take `CC(C)(C)C1(CNC(=O)c2cnn(-c3ccc(C(F)(F)F)cc3)n2)NC(=O)NC1=O` (racemic): the IC50 in assay [1] came to 0.62 µM; in assay [2], 50 µM.

As for `O=C1NC(=O)[C@](CNC(=O)c2cnc(-c3ccccc3)o2)(C2CC2)N1`, the concentration for half-maximal inhibition (IC50) was 0.55 µM in assay [1] and 11.3 µM in assay [2].

For `CC(C)C1(CNC(=O)c2cnn(-c3ccccc3)n2)NC(=O)NC1=O` (racemic), the IC50 in assay [1] turned out to be 0.265 µM; in assay [2], 14.5 µM.

Take `O=C1NC(=O)[C@](CNC(=O)c2cnn(-c3ccc(Cl)cc3F)n2)(C2CC2)N1`: the 50% inhibitory concentration (IC50) turned out to be 0.06 µM in assay [1] and 1 µM in assay [2].

On to `Cn1ccnc1C1(CNC(=O)c2cnn(-c3ccc(F)c(F)c3)n2)NC(=O)NC1=O` (configuration not stated), for which the IC50 came out at 0.003 µM in assay [1] and 0.046 µM in assay [2].

In the case of `O=C1NC(=O)C(CNC(=O)c2cnn(-c3ccc(F)cc3)n2)(c2ncsc2C(F)(F)F)N1` (stereo in doubt), the half-maximal inhibitory concentration (IC50) in assay [1] amounted to 0.027 µM; in assay [2] it was 3.5 µM.

Consider `O=C1NC(=O)C(CNC(=O)c2cnn(-c3ccc(Cl)c(F)c3)n2)(c2nccs2)N1` (stereo in doubt), for which the results for the IC50 in assay [1] and in assay [2] were 0.005 µM and 0.4 µM, respectively.

Take `O=C1NC(=O)C(CNC(=O)c2cnn(-c3ccc(F)cc3)n2)(C2(F)CC2)N1` (racemic): the IC50 in assay [1] is 0.19 µM; in assay [2], 7.9 µM.

Turning to `C[C@@H](NC(=O)c1cnn(-c2ccccc2)n1)C1(C2CC2)NC(=O)NC1=O` (some centres not stated), the IC50 was 0.71 µM in assay [1] and 50 µM in assay [2].

Turning to `O=C1NC(=O)[C@](CNC(=O)c2cnn(-c3ccc(F)c(F)c3)n2)(C2CC2)N1`, the half-inhibitory concentration (IC50) turned out to be 0.007 µM in assay [1] and 0.175 µM in assay [2].

Turning to `CC(C)C1(CNC(=O)c2cnn(-c3ccc(F)cc3F)n2)NC(=O)NC1=O` (stereo in doubt), the IC50 in assay [2] was 13 µM.

For `O=C1NC(=O)C(CNC(=O)c2cnn(-c3ccc(F)cc3)n2)(c2ccccn2)N1` (stereo in doubt; form 1), the IC50 in assay [2] was determined as 1.9 µM.

`Cn1ccnc1C1(CNC(=O)c2cnn(-c3ccccc3)n2)NC(=O)NC1=O` (stereo in doubt): the 50% inhibitory concentration (IC50) in assay [2] turned out to be 0.32 µM.
